Measurements taken from publication PMC11619157, “Stephanine Protects Against Osteoporosis by Suppressing Osteoclastogenesis via Inhibition of the RANKL—RANK Interaction” (Journal of Cellular and Molecular Medicine, 2024).
pKd: −log10 of the molar value.

Columns and labels:
RANKL = target: T1, RANKL (Homo sapiens, UniProt O14788); assay: SPR kinetics (Biacore S200), RANKL amine-coupled on CM5 chip; type: binding
T1 construct: gene TNFSF11; extracellular domain
T1 sequence (O14788 69-317 limits assumed): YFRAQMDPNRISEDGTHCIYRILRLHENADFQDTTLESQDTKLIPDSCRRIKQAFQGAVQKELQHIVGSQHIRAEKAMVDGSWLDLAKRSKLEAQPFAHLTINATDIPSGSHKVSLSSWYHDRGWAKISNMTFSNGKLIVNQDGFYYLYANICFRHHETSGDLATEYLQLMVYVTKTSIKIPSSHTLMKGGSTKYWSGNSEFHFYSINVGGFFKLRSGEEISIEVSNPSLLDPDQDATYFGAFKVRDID

RANK = target: T2, RANK (Homo sapiens, UniProt Q9Y6Q6); assay: SPR kinetics (Biacore S200), RANK amine-coupled on CM5 chip; type: binding
T2 construct: gene TNFRSF11A; extracellular domain
T2 sequence (Q9Y6Q6 30-212 limits assumed): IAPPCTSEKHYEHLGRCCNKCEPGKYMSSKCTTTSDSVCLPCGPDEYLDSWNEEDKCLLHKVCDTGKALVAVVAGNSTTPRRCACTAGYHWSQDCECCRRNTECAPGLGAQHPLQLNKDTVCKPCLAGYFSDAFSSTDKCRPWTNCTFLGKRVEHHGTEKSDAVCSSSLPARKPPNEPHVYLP

## COc1cccc2c1C[C@@H]1c3c(cc4c(c3-2)OCO4)CCN1C [SA, Stephanine]
RANKL
  pKd: 4.12
RANK
  pKd: 5.43
